Measurements from ChEMBL document CHEMBL1138893, “Modulators of the human CCR5 receptor. Part 3: SAR of substituted 1-[3-(4-methanesulfonylphenyl)-3-phenylpropyl]-piperidinyl phenylacetamides” (Bioorg Med Chem Lett, 2006).

Columns and labels:
[1] = in vivo; settings: rat, iv
Description: Clearance in rat at 1-2 mg/kg, iv

[2] = in vivo; settings: rat, iv; remark: listed apart in the source
[3] = in vivo; settings: rat, iv; remark: listed apart in the source
Description: Half life in rat at 1-2 mg/kg, iv

[4] = biological target: C-C chemokine receptor type 5 (Homo sapiens, UniProt P51681); experiment: biochemical
Chain of C-C chemokine receptor type 5 (P51681 whole entry): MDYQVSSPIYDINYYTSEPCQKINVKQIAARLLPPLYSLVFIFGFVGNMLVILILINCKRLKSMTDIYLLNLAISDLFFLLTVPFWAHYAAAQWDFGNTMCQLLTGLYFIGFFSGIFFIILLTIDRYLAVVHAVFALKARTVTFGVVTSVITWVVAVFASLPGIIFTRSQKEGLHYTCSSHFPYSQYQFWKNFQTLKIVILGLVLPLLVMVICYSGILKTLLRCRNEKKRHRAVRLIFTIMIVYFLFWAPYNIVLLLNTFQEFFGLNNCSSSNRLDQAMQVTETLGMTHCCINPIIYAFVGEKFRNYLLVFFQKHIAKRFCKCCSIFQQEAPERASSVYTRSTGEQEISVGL
Description: Displacement of [125I]MIP-1-alpha to human recombinant CCR5 expressed in CHO cells

Compound	clearance [1]	Vd [2]	half-life [3]	IC50 [4]
C=CCN(C(=O)Cc1ccc(S(C)(=O)=O)cc1)C1CCN(CCC(c2ccccc2)c2ccccc2)CC1	54 mL/min/kg	2.7 L/kg	0.9 h	
CCN(C(=O)Cc1ccc(S(C)(=O)=O)cc1)C1CCN(CCC(c2ccc(F)cc2)c2ccc(F)cc2)CC1	10 mL/min/kg	1.7 L/kg	2.4 h	
CCN(C(=O)Cc1ccc(S(C)(=O)=O)cc1)C1CCN(CC[C@H](c2ccc(S(C)(=O)=O)cc2)c2cccc(C#N)c2)CC1				56 nM
CCN(C(=O)Cc1ccc(S(C)(=O)=O)cc1)C1CCN(CC[C@H](c2ccc(S(C)(=O)=O)cc2)c2cccc(C(C)(C)C)c2)CC1				500 nM
